In brackets after ≈: the same amount, converted by molar mass.
Columns and labels:
Arylsulfatase A [1] = biological target: T1, Arylsulfatase A (Homo sapiens, UniProt P15289); assay: Inhibition of ARSA (unknown origin) using 4-methylumbelliferyl sulfate (4-MUS) as a substrate by fluorescent assay
T1 sequence (P15289 whole entry): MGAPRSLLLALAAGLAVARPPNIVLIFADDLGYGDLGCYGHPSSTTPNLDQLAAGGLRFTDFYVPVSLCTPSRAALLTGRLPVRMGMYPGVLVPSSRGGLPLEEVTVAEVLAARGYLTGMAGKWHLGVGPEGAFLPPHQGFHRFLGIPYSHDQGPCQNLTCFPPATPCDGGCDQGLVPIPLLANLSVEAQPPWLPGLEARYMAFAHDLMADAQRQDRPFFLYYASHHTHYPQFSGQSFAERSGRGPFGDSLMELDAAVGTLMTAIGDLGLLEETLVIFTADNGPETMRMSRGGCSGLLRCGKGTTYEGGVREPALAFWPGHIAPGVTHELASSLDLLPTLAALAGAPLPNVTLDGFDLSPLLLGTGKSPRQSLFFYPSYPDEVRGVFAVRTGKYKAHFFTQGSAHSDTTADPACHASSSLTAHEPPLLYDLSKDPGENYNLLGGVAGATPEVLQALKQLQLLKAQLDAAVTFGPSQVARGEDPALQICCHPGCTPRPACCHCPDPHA

Arylsulfatase A [2] = biological target: T1, Arylsulfatase A; assay: Binding affinity to ARSA (unknown origin) assessed as dissociation constant by SPR analysis
[3] = Inhibition of Hepatitis C virus NS3 helicase measured by fluorescence helicase assay; set-up: species or system Hepacivirus hominis
Enterococcus hirae = assay: Antibacterial activity against Enterococcus hirae ATCC 10541 assessed as growth inhibition after 24 hrs by two-fold serial dilution method; assay type: functional
[4] = Inhibition of NFAT activity in human GBM cells; assay type: cell-based
MIA PaCa-2 = assay: Antitumor activity against human MIA PaCa-2 cells assessed as reduction in cell viability and incubated for 3 hrs by MTT assay; assay type: functional, cell-based; settings: MIA PaCa-2, 3 h
PANC-1 = assay: Antitumor activity against human PANC-1 cells assessed as reduction in cell viability and incubated for 3 hrs by MTT assay; assay type: functional, cell-based; settings: PANC-1, 3 h
BXPC-3 = assay: Antitumor activity against human BXPC-3 cells assessed as reduction in cell viability and incubated for 3 hrs by MTT assay; assay type: functional, cell-based; settings: BXPC-3, 3 h
Cholinesterase = Cholinesterase (Homo sapiens, UniProt P06276); assay: Inhibition of human BuChE at 550 uM using butyrylthiocholine chloride as substrate by Ellman's method
Cholinesterase, sequence (P06276 whole entry): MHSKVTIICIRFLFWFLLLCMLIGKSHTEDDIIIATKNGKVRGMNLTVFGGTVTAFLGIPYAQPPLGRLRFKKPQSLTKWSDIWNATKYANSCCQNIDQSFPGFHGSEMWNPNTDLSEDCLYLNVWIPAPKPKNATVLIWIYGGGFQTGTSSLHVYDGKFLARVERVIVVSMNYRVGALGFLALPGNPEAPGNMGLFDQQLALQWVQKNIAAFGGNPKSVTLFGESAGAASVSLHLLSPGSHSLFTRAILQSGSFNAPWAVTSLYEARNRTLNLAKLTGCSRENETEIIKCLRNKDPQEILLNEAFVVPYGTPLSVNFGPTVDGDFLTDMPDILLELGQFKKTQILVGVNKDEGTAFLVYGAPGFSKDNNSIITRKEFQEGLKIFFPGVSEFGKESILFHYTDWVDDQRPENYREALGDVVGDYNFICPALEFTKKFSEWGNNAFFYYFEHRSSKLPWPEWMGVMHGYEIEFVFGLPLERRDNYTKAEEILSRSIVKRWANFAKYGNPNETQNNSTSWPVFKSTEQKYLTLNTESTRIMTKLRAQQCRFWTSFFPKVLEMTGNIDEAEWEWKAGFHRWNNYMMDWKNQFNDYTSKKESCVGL

U-87 MG = assay: Cytotoxicity against human U87 cells assessed as reduction in cell viability measured after 72 hrs by MTT assay; assay type: functional, cell-based, U-87MG ATCC
MGC-803 = assay: Cytotoxicity against human MGC-803 cells assessed as reduction in cell viability measured after 72 hrs by MTT assay; assay type: functional, cell-based; settings: MGC-803, 72 h
SGC-7901 = assay: Cytotoxicity against human SGC-7901 cells assessed as reduction in cell viability measured after 72 hrs by MTT assay; assay type: functional, cell-based; settings: SGC-7901, 72 h
MOLT-4 = assay: Cytotoxicity against human MOLT-4 cells assessed as inhibition of cell growth incubated for 24 to 72 hrs by MTT assay; assay type: functional, cell-based
GBM = assay: Anticancer activity against human GBM cells assessed as cell growth inhibition incubated for 72 hrs; assay type: functional, cell-based

`O=C1C=CC(=O)c2c1ccc1c2c(=O)oc2c3ccccc3ccc12` showed an IC50 (Arylsulfatase A [1]) of 13.2 µM and a Kd (Arylsulfatase A [2]) of 21 µM.
In the case of `O=C(O)c1cc(O)c2c(c1)[C@H]([C@@H]1c3cccc(O)c3C(=O)c3c(O)cc(C(=O)O)cc31)c1cccc(O)c1C2=O`, the IC50 [3] is reported as 0.8 µM.
For `Cc1cc(O)c2c(=O)c3c(O)cc(O)c4c5c(O)cc(O)c6c(=O)c7c(O)cc(C)c8c1c2c(c34)c(c78)c65` [HYPERICIN], the IC50 [3] was 3 µM.
With `NC1=C(NC(=O)Cn2cc(CCBr)nn2)C(=O)c2ccccc2C1=O` the MIC (Enterococcus hirae) was 4 µg/mL (≈ 9.9 µM).
Work on `NC1=C(NC(=O)Cn2cc(CC3CCCCC3)nn2)C(=O)c2ccccc2C1=O` yielded an MIC (Enterococcus hirae) of 4 µg/mL (≈ 10.2 µM).
`O=C1C=C(Nc2ccc3cnccc3c2)c2ccccc2C1=O` showed an IC50 [4] of 0.82 µM.
In the case of `CC(=O)c1ccccc1NC1=CC(=O)c2ncncc2C1=O`, the IC50 (MIA PaCa-2) is reported as 1.9 µM, the IC50 (PANC-1) is reported as 2.2 µM and the IC50 (BXPC-3) is reported as 2.7 µM.
`CC1=C(NC2CCN(Cc3ccccc3)CC2)C(=O)c2ccccc2C1=O` gave an IC50 (Cholinesterase) of 0.0957 µM.
Compound `CC(C)=CCC(OC(=O)CCC(=O)Nc1ccc(Oc2ccccc2)cc1)C1=CC(=O)c2c(O)ccc(O)c2C1=O` (stereo not drawn) has an IC50 (U-87 MG) of 3.8 µM, an IC50 (MGC-803) of 4.1 µM and an IC50 (SGC-7901) of 4.1 µM.
For `C[C@@]12CCC(=O)c3coc(c31)C(=O)c1cc3c(cc12)C(=O)C=CC3=O` [HELENAQUINONE], the IC50 (MOLT-4) was 1.44 µM.
For `Nc1c(-c2ccccc2)ncc2c1C(=O)c1c(-c3ccccn3)nn(-c3ccc(F)cc3F)c1C2=O`, the IC50 (GBM) was 25 µM.
With `O=C1c2c(O)ccc(O)c2C(=O)c2c(O)ccc(O)c21` the IC50 [3] was 6 µM.
`Nc1c(-c2cccnc2)ncc2c1C(=O)c1c(-c3ccccn3)nn(-c3ccc(F)cc3F)c1C2=O` gave an IC50 (GBM) of 25 µM.
